Patent publication US11702422B2, “Imidazopyridazines as modulators of IL-17” (Janssen Pharmaceutica NV, priority 2020, dated 2023)
pIC50: −log10 of the molar value.

Legend:
[1] = tested on: IL-17A-induced G-CSF production in human normal keratinocyte (NHK); assay: NHK Assay: IL-17A-induced G-CSF production in human normal keratinocytes; format: cell-based; settings: Homo sapiens, Keratinocyte, 24 h, adult normal human keratinocytes, IL-17A 5 ng/mL, simple average if tested more than once
Outline: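 Compound is first combined with recombinant human IL-17A for 1 h at rt, and the mix is added to adult normal human keratinocytes so that IL-17A is 5 ng/mL. After 24 h at 37° C in 5% FBS, G-CSF released into the medium is read by HTRF and IC50 derived.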

[2] = target: IL-17A(FLAG-Tagged): IL-17RA(His-Tagged) (Homo sapiens, UniProt Q16552, K93Q); assay: IL-17A(FLAG-Tagged): IL-17RA(His-Tagged) Binding Disruption Eu-HTRF Assay; settings: IL-17A/IL-17RA binding disruption, simple average if tested more than once
Outline: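 IC50 comes from a one-site competition fit of the HTRF 665/620 nm ratio. Compound dilutions (2-fold, 22 points) were held 1 h rt with FLAG-tagged IL-17A dimer, then His-tagged IL-17RA plus Eu-cryptate anti-FLAG and D2 anti-His antibodies were added for 2 h rt.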

Sequence of UniProt Q16552 (Q16552 with tags, fused parts or gaps K93Q): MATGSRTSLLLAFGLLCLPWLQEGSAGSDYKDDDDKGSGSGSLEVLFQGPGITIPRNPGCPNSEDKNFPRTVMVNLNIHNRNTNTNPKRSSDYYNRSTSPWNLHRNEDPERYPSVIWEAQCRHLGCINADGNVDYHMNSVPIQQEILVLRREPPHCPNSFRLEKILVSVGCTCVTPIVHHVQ

Row | SMILES | pIC50 [1] | pIC50 [2]
1 | Cc1ncoc1C(=O)N[C@H](c1cn2ncc([C@H](NC(=O)CCC(F)(F)F)C3CC3)cc2n1)C1CCC(F)(F)CC1 [Example 471, N—((S)-(7-((R)-Cyclopropyl(4,4,4-trifluorobutanamido)methyl)imidazo[1,2-b]pyridazin-2-yl)(4,4-difluorocyclohexyl)methyl)-4-methyloxazole-5-carboxamide] | 5.64 | 6.42
2 | O=C(CCC(F)(F)F)N[C@@H](c1cnn2cc([C@@H](NC(=O)c3cncc(CCC(F)F)c3)C3CCC(F)(F)CC3)nc2c1)C1CC1 [Example 151, N—((S)-(7-((R)-Cyclopropyl(4,4,4-trifluorobutanamido)methyl)imidazo[1,2-b]pyridazin-2-yl)(4,4-difluorocyclohexyl)methyl)-5-(3,3-difluoropropyl)nicotinamide] | 6.70 | 7.17
3 | Cc1nonc1C(=O)N[C@H](c1cn2ncc([C@H](NC(=O)C(C)CC(F)F)C3CC3)cc2n1)C1CCC(F)(F)CC1 (single isomer, unassigned) [Example 329, N—((S)-(7-((R)-Cyclopropyl((S*)-4,4-difluoro-2-methylbutanamido)methyl)imidazo[1,2-b]pyridazin-2-yl)(4,4-difluorocyclohexyl)methyl)-4-methyl-1,2,5-oxadiazole-3-carboxamide] | 5.66 | 6.03
4 | Cc1nonc1C(=O)N[C@H](c1cn2ncc([C@H](NC(=O)[C@H](F)[C@H](C)C(F)(F)F)C3CC3)cc2n1)C1CCC(F)(F)CC1 (relative stereo) [Example 353, N—((S)-(7-((R)-Cyclopropyl((2R*,3S*)-2,4,4,4-tetrafluoro-3-methylbutanamido)methyl)imidazo[1,2-b]pyridazin-2-yl)(4,4-difluorocyclohexyl)methyl)-4-methyl-1,2,5-oxadiazole-3-carboxamide] | 6.01 | 6.20
5 | O=C(CCC(F)(F)F)N[C@@H](c1cnn2cc([C@@H](NC(=O)[C@H]3CC34CCC4)C3CCC(F)(F)CC3)nc2c1)C1CC1 (relative stereo) [Example 367, (S*)—N—((S)-(7-((R*)-Cyclopropyl(4,4,4-trifluorobutanamido)methyl)imidazo[1,2-b]pyridazin-2-yl)(4,4-difluorocyclohexyl)methyl)spiro[2.3]hexane-1-carboxamide] | 6.20 | 6.62
6 | COCc1cncc(C(=O)N[C@H](c2cn3ncc([C@H](NC(=O)CCC(F)(F)F)C4CC4)cc3n2)C2CCC(F)(F)CC2)c1 [Example 462, N—((S)-(7-((R)-Cyclopropyl(4,4,4-trifluorobutanamido)methyl)imidazo[1,2-b]pyridazin-2-yl)(4,4-difluorocyclohexyl)methyl)-5-(methoxymethyl)nicotinamide] | 5.96 | 6.85
7 | [2H]C([2H])([2H])C([2H])([2H])n1nccc1C(=O)N[C@H](c1cn2ncc([C@H](NC(=O)CCC(F)(F)F)C3CC3)cc2n1)C1CCC(F)(F)CC1 [Example 233, N—((S)-(7-((R)-Cyclopropyl(4,4,4-trifluorobutanamido)methyl)imidazo[1,2-b]pyridazin-2-yl)(4,4-difluorocyclohexyl)methyl)-1-(ethyl-d5)-1H-pyrazole-5-carboxamide] | 7.29 | 7.33
8 | O=C(CC1CC(F)(F)C1)NC(c1cnn2cc([C@@H](NC(=O)c3cnn(CCC(F)(F)F)n3)C3CCC(F)(F)CC3)nc2c1)C1CC1 (single isomer, unassigned) [Example 22, N—((S)-(7-((R*)-Cyclopropyl(2-(3,3-difluorocyclobutyl)acetamido)methyl)imidazo[1,2-b]pyridazin-2-yl)(4,4-difluorocyclohexyl)methyl)-2-(3,3,3-trifluoropropyl)-2H-1,2,3-triazole-4-carboxamide] | 6.49 | 6.85
